Measured values reported in US11504362B2, “Liquid dosage forms to treat cancer” (Exelixis, Inc., priority 2017, dated 2022).
“And” between values parts separate entries of the source, which are not always exact repeats. Identical values can stand only once. “Also recorded” adds a separate entry of the source. Like-named read-outs stand apart in the source and are kept apart here.

How the values were obtained:
[1] = male, human, in vivo
Protocol: (§1) Pharmacokinetics: Serial blood, urine, and feces were collected at specified times following dosing.
(§2) All samples collected for radioactivity analysis were analyzed for total radioactivity.
Blood samples (4 mL) for whole blood analysis of total radioactivity were collected within 15 minutes pre-dose and at 1, 2, 4, 8, 14, 24, and 72 hours post-dose. Prior to study initiation, the Celerion Scintillation Laboratory supplied to the Celerion clinic complete written instructions for collection, handling, and processing of samples. Samples collected were used to determine the percentage of radioactivity associated with erythrocytes in whole blood over time (calculated only for time points that whole blood was collected).
Individual dosing containers (including the dosage form) were analyzed pre-dose and post-dose for radioactivity, with the (post-dose−pre-dose) difference being the administered dose. Whole blood, plasma, urine, feces, and emesis (if applicable) were analyzed for radioactivity content by liquid scintillation counting procedures. Whole blood and fecal samples were dried and oxidized prior to counting. Detailed reports of scintillation counting method and results for total radioactivity accompany the clinical study report. […]
The Cmax and time to peak concentration (tmax) were directly determined from the observed blood/plasma concentrations data. […]

[2] = Percentage of 14C radioactivity associated with erythrocytes in whole blood (ETR); format: in vivo, human; settings: single 175 mg oral dose
Protocol: To determine the percentage of radioactivity associated with erythrocytes in whole blood over time (ETR; calculated only for time points that whole blood is collected), the following was calculated:
The amount of ^14C radioactivity in plasma versus whole blood, adjusted for the hematocrit, at the specific time points of comparison (ETR=Xe/Xb=1−[Cp*(1−Hct)/Cb], where Xe and Xb stands for amount of radioactivity in erythrocyte or whole blood, respectively. Hematocrit values for Days-1, 2, and 4 were averaged for use in this calculation.
Blood samples (4 mL) for whole blood analysis of total radioactivity were collected within 15 minutes pre-dose and at 1, 2, 4, 8, 14, 24, and 72 hours post-dose. […] Samples collected were used to determine the percentage of radioactivity associated with erythrocytes in whole blood over time (calculated only for time points that whole blood was collected).
To determine the percentage of radioactivity associated with erythrocytes in whole blood over time (calculated only for time points where whole blood was collected), the following was calculated: the amount of radioactivity in plasma versus whole blood, adjusted for the hematocrit, at the specific time points of comparison (ETR=Xe/Xb=1−[Cp*(1-Hct)/Cb], where Cp stands for amount of radioactivity in plasma and Cb stands for the amount of radioactivity in blood and Hct stands for hematocrit value. Hematocrit values for Days-1, 2, and 4 were averaged for use in this calculation.

[3] = Plasma pharmacokinetics of XL184 and metabolites by LC/MS/MS method; settings: human, in vivo
Protocol: as §1, §2
Detailed reports of the bioanalytical methodologies and results accompany the clinical study report.
The other minor metabolite in plasma, p-Fluoroaniline, was analyzed by Exelixis using a validated LC/MS/MS method.
PK variables were computed using WinNonlin Professional, version 5.2.

clinical = settings: human, in vivo
Protocol: Samples for 2 subjects were used for the investigation study. Therefore, only 6 subjects' PK profiles were determined using a radio-quantitation method.

[4] = Safety evaluation (AEs, vital signs, ECG, laboratory tests) in Phase 1 mass balance study; format: in vivo, human
Protocol: Safety: Safety evaluations included assessments of AEs, vital signs, electrocardiogram (ECG), laboratory tests, and concomitant medications. Adverse event seriousness, severity grade, and relationship to study treatment were assessed by the investigator. Severity grade was defined by the National Cancer Institute Common Terminology Criteria for Adverse Events (CTCAE) version 4.0.
Adverse event terms were standardized using the Medical Dictionary for Regulatory Activities and tabulated by system organ class and preferred term.

[5] = cited from earlier work; for CL/F / t1/2 / Tmax / Cmax: single oral 140 mg FBE; for CL/F / t1/2 / Cmax: mean ± CV %; for Tmax: median (minimum, maximum); for Cmax: plasma, n = 72
VEGFR2 = VEGFR2 (Mus musculus, UniProt P35918); settings: administration to mice; Yakes, et al. 2011; cited from earlier work
Chain of VEGFR2 (P35918 20-1345): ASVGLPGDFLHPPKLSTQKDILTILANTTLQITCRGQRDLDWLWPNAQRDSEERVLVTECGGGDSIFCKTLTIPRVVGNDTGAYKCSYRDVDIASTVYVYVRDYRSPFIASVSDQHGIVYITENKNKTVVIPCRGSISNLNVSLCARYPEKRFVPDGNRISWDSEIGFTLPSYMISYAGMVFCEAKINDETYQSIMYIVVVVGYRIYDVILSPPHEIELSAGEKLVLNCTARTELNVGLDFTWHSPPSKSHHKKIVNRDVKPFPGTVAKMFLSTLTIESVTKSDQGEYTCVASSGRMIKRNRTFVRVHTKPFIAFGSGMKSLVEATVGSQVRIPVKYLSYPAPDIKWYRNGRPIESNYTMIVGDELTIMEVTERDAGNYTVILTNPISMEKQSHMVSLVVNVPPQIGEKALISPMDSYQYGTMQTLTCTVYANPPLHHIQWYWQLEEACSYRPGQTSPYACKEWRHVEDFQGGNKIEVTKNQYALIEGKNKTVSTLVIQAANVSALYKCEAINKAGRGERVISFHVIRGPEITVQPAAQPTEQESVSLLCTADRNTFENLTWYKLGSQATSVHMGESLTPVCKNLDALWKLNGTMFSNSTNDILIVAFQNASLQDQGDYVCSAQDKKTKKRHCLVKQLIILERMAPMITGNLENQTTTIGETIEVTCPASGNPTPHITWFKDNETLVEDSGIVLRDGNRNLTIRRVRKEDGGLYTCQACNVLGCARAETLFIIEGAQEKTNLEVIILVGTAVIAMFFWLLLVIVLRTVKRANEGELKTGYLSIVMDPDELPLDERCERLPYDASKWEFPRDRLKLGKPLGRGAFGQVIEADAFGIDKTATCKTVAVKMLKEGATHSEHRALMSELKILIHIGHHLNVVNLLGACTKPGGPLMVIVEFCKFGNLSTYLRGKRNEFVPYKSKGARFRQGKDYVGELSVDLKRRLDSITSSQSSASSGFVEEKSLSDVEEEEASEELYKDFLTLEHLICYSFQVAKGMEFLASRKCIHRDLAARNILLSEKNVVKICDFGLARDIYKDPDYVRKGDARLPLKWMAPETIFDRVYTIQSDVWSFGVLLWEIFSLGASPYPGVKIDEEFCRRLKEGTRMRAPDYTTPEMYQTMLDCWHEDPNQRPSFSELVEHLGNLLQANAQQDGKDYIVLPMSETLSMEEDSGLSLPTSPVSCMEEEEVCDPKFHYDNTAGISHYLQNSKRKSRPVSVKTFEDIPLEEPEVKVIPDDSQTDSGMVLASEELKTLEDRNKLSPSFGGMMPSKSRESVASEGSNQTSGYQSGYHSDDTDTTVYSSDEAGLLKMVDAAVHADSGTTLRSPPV

RET = settings: administration to mice; Yakes, et al. 2011; cited from earlier work
[6] = test system: tumor models (human medullary thyroid cancer, human breast cancer, and rat glioma); settings: cited from earlier work
[7] = po, 175 mg, Plasma concentration of XL184 by LC/MS/MS, single 175 mg oral XL184 L-malate, healthy male subjects, […], individual subject

Structure (SMILES): COc1cc2nccc(Oc3ccc(NC(=O)C4(C(=O)Nc5ccc(F)cc5)CC4)cc3)c2cc1OC [XL184, N-(4-{[6,7-bis(methyloxy)quinolin-4-yl]oxy}phenyl)-N′-(4-fluorophenyl)cyclopropane-1,1-dicarboxamide]
- kel of total radioactivity [1]: 0.00308 h⁻¹
- Percentage of 14C Radioactivity Associated with Erythrocytes in Whole Blood (ETR) ([2]; 1.00 h, Max (N=8)): 14%
- Percentage of 14C Radioactivity Associated with Erythrocytes in Whole Blood (ETR) ([2]; 1.00 h, Mean (N=8)): 7.08%
- Percentage of 14C Radioactivity Associated with Erythrocytes in Whole Blood (ETR) ([2]; 1.00 h, Median (N=8)): 8.0%
- Percentage of 14C Radioactivity Associated with Erythrocytes in Whole Blood (ETR) ([2]; 1.00 h, Min (N=8)): −3.4%
- Percentage of 14C Radioactivity Associated with Erythrocytes in Whole Blood (ETR) ([2]; 1.00 h, individual subjects): 6.87% and 14.1% (2×) and −3.37% and 9.27% and 3.64% and 9.17% and 2.89%
- Percentage of 14C Radioactivity Associated with Erythrocytes in Whole Blood (ETR) ([2]; 2.00 h, GM, geometric mean (N=8)): 7.30%
- Percentage of 14C Radioactivity Associated with Erythrocytes in Whole Blood (ETR) ([2]; 2.00 h, Max (N=8)): 14%
- Percentage of 14C Radioactivity Associated with Erythrocytes in Whole Blood (ETR) ([2]; 2.00 h, Mean (N=8)): 7.85%
- Percentage of 14C Radioactivity Associated with Erythrocytes in Whole Blood (ETR) ([2]; 2.00 h, Median (N=8)): 6.7%
- Percentage of 14C Radioactivity Associated with Erythrocytes in Whole Blood (ETR) ([2]; 2.00 h, Min (N=8)): 4.1%
- Percentage of 14C Radioactivity Associated with Erythrocytes in Whole Blood (ETR) ([2]; 2.00 h, individual subjects): 6.90% and 13.7% and 6.40% and 4.14% and 5.07% and 5.90% and 10.3% and 10.5%
- Percentage of 14C Radioactivity Associated with Erythrocytes in Whole Blood (ETR) ([2]; 4.00 h, GM, geometric mean (N=8)): 5.96%
- Percentage of 14C Radioactivity Associated with Erythrocytes in Whole Blood (ETR) ([2]; 4.00 h, Max (N=8)): 9.0%
- Percentage of 14C Radioactivity Associated with Erythrocytes in Whole Blood (ETR) ([2]; 4.00 h, Mean (N=8)): 6.40%
- Percentage of 14C Radioactivity Associated with Erythrocytes in Whole Blood (ETR) ([2]; 4.00 h, Median (N=8)): 6.5%
- Percentage of 14C Radioactivity Associated with Erythrocytes in Whole Blood (ETR) ([2]; 4.00 h, Min (N=8)): 2.1%
- Percentage of 14C Radioactivity Associated with Erythrocytes in Whole Blood (ETR) ([2]; 4.00 h, individual subjects): 8.27% and 6.45% and 6.26% and 8.96% and 6.74% and 2.05% and 6.55% and 5.88%
- Percentage of 14C Radioactivity Associated with Erythrocytes in Whole Blood (ETR) ([2]; 8.00 h, GM, geometric mean (N=8)): 10.9%
- Percentage of 14C Radioactivity Associated with Erythrocytes in Whole Blood (ETR) ([2]; 8.00 h, Max (N=8)): 17%
- Percentage of 14C Radioactivity Associated with Erythrocytes in Whole Blood (ETR) ([2]; 8.00 h, Mean (N=8)): 12.2%
- Percentage of 14C Radioactivity Associated with Erythrocytes in Whole Blood (ETR) ([2]; 8.00 h, Median (N=8)): 13%
- Percentage of 14C Radioactivity Associated with Erythrocytes in Whole Blood (ETR) ([2]; 8.00 h, Min (N=8)): 3.4%
- Percentage of 14C Radioactivity Associated with Erythrocytes in Whole Blood (ETR) ([2]; 8.00 h, individual subjects): 12.8% and 17.1% and 13.6% and 17.2% and 12.0% and 3.37% and 15.4% and 6.19%
- Percentage of 14C Radioactivity Associated with Erythrocytes in Whole Blood (ETR) ([2]; 14.00 h, GM, geometric mean (N=8)): 11.7%
- Percentage of 14C Radioactivity Associated with Erythrocytes in Whole Blood (ETR) ([2]; 14.00 h, Max (N=8)): 17%
- Percentage of 14C Radioactivity Associated with Erythrocytes in Whole Blood (ETR) ([2]; 14.00 h, Mean (N=8)): 12.3%
- Percentage of 14C Radioactivity Associated with Erythrocytes in Whole Blood (ETR) ([2]; 14.00 h, Median (N=8)): 13%
- Percentage of 14C Radioactivity Associated with Erythrocytes in Whole Blood (ETR) ([2]; 14.00 h, Min (N=8)): 6.1%
- Percentage of 14C Radioactivity Associated with Erythrocytes in Whole Blood (ETR) ([2]; 14.00 h, individual subjects): 6.13% and 17.0% and 12.1% and 7.45% and 12.7% and 14.1% and 14.0% and 14.9%
- Distribution of radioactivity between plasma and red blood cells [2]: present primarily in plasma and not markedly associated with red blood cells
- concentration at 8 h ([3]; po, 175 mg, Plasma Concentrations of XL184 by LC/MS/MS Method, single 175 mg oral dose, Min (N=8)): 267 ng/mL
- concentration at 8 h ([3]; po, 175 mg, Plasma Concentrations of XL184 by LC/MS/MS Method, single 175 mg oral dose, individual subjects): 532 ng/mL
- concentration at 14 h ([3]; po, 175 mg, Plasma Concentrations of XL184 by LC/MS/MS Method, 14.00 h, single 175 mg oral dose, individual subjects): 488 ng/mL
- concentration at 48 h [3, 7]: 352 ng/mL
- concentration at 120 h [3, 7]: 156 ng/mL
- AUC0-24 ([3]; male): 14300 ± 2600 (18) h · ng/mL
- AUC0-72 ([3]; male): 35000 ± 6770 (19) h · ng/mL
- AUC0-inf ([3]; male): 68000 ± 6910 (10) h · ng/mL
- AUC0-t ([3]; male): 67200 ± 6880 (10) h · ng/mL
- Tmax ([3]; male): 1.49 (1.00, 3.00) h
- Tmax ([3]; male, Tmax): ~1.49 h
- AUC0-t ([3]; male, po, 175 mg, AUC0-24): 17600 ng·h/mL
- AUC0-t ([3]; male, po, 175 mg, AUC0-72): 46800 ng·h/mL
- AUC0-inf ([3]; male, po, 175 mg, AUC0-inf): 73100 ng·h/mL
- AUC0-t ([3]; male, po, 175 mg, AUC0-t): 72900 ng·h/mL
- Cmax ([3]; male, po, 175 mg, Cmax): 1250 ng/mL
- half-life ([3]; male, po, 175 mg, t1/2): 2.88 days
- AUC0-24 (clinical): 10700 ± 3170 h · ngEq/mL
- AUC0-72 (clinical): 23800 ± 9340 h · ngEq/mL
- AUC0-inf (clinical): 40300 ± 12300 h · ngEq/mL
- AUC0-t (clinical): 38100 ± 12800 h · ngEq/mL
- concentration at 0.5 h (clinical; po, 175 mg, Plasma concentration, 0.50 h, individual subject, single 175 mg oral [14C]-XL184 (100 μCi), healthy male subjects, radio-quantitative method): 283 ng/mL
- concentration at 5 h (clinical; po, 175 mg, Plasma concentration, 5.00 h, individual subject, single 175 mg oral [14C]-XL184 (100 μCi), healthy male subjects, radio-quantitative method): 512 ng/mL
- concentration at 336 h (clinical; po, 175 mg, Plasma concentration, 336.00 h, individual subject, single 175 mg oral [14C]-XL184 (100 μCi), healthy male subjects, radio-quantitative method): 10.3 ng/mL
- concentration at 72 h (clinical; po, 175 mg, Plasma concentration, individual subject, single 175 mg oral [14C]-XL184 (100 μCi), healthy male subjects, radio-quantitative method): 101 ng/mL
- ke1 (clinical; male): 0.0112 ± 0.0053 h⁻¹
- Tmax (clinical; male, Tmax): ~1.99 h
- concentration at 72 h (clinical; male, po, 175 mg, Plasma concentration, Mean, N=6, single 175 mg oral [14C]-XL184 (100 μCi), healthy male subjects, radio-quantitative method): 159 ng/mL
- concentration at 72 h (clinical; male, po, 175 mg, Plasma concentration, Median, N=6, single 175 mg oral [14C]-XL184 (100 μCi), healthy male subjects, radio-quantitative method): 162 ng/mL
- Total number of TEAEs ([4]; 8 subjects): 36
- TEAEs resolved within 1 to 3 days ([4]; 31/36): 86%
- Severity of one event of treatment related dizziness ([4]; CTCAE version 4.0): moderate (CTCAE grade 2)
- Severity of the majority of TEAEs ([4]; CTCAE version 4.0): mild in severity (CTCAE grade 1)
- Laboratory values ([4]; changes from baseline): no clinically significant changes from baseline in any laboratory values; also recorded: no notable clinical laboratory findings
- Subjects reporting TEAEs assessed as related to the study treatment ([4]; five subjects): 62.5%
- Vital signs and ECG evaluations ([4]; in vivo): No remarkable on study results were noted
- Tolerability ([4]; single 175 mg oral dose): well tolerated
- Deaths, SAEs, discontinuations due to AEs, other significant AEs ([4]; single 175 mg oral dose, 8 healthy male subjects): no deaths, other SAEs, discontinuations due to AEs, or other significant AEs
- Subjects reporting TEAEs ([4]; six of 8 subjects): 75%
- Subjects reporting flatulence ([4]; three subjects): 37.5%
- Subjects reporting headache ([4]; three subjects): 37.5%
- Vomiting after dosing ([4]; within 4 hours of dosing): No subject vomited within 4 hours of dosing
- % CV of Cmax, AUC0-t, and AUC0-inf ([5]; 20 mg (FBE) tablet strength): 48-72%
- % CV of Cmax, AUC0-t, and AUC0-inf ([5]; 40 mg (FBE) tablet strength): 42-56%
- % CV of Cmax, AUC0-t, and AUC0-inf ([5]; 60 mg (FBE) tablet strength): 38-41%
- % CV of AUC0-inf ([5]; 140 mg (FBE) capsule): ~39%
- % CV of AUC0-t ([5]; 140 mg (FBE) capsule): ~37%
- % CV of Cmax ([5]; 140 mg (FBE) capsule): ~43%
- % CV of AUC0-inf ([5]; 140 mg (FBE) tablet): ~46%
- % CV of AUC0-t ([5]; 140 mg (FBE) tablet): ~44%
- % CV of Cmax ([5]; 140 mg (FBE) tablet): about 54%
- CL/F ([5]; capsule formulation): 2.69 ± 32 L/h
- t1/2 ([5]; capsule formulation): 112 ± 26 h
- Tmax ([5]; capsule formulation): 4.00 (2.00, 5.04) h
- Cmax ([5]; capsule formulation): 554 ± 43 ng/mL
- CL/F ([5]; tablet formulation): 2.61 ± 49 L/h
- t1/2 ([5]; tablet formulation): 115 ± 31 h
- Tmax ([5]; tablet formulation): 3.49 (1.99, 24.00) h
- Cmax ([5]; tablet formulation): 702 ± 54 ng/mL
- Inhibition of VEGFR2 in vivo (VEGFR2): dose-dependent inhibition
- Inhibition of RET in vivo (RET): dose-dependent inhibition
- Tumor regression ([6]; human medullary thyroid cancer, human breast cancer, and rat glioma models): marked tumor regression
- Tumor growth inhibition ([6]; multiple tumor models): significant tumor growth inhibition
- Immunohistochemistry findings ([6]; within 24 hours after administration): rapid effects on the endothelium, vascular breakdown, and tumor cell death
